In patent US11191291B2, “Compositions for taste masking” (International Flavors & Fragrances Inc., priority 2016, dated 2021):

Test: Sensory panel ranking of lingering aftertaste masking on a 0-5 scale (Example III)
Type: in vivo
Settings: for Masking Effect: scale of 0-5, 0=no masking, 5=very strong masking; for Taste compared with the control: αG SWEET 0.14% solution, water used in control group, concentration series
Description: A solution of αG SWEET was prepared in water at a concentration of 0.14%. The Emblica officinalis fruit extract (prepared as above in Example I) containing the mucic acid 2-O-gallate (11.84%) and mucic acid lactone gallate (6.35%) mixture, individual fractions containing each of mucic acid 2-O-gallate, mucic acid lactone gallate, galloyl glucose (prepared in Example I) and mucic acid 3-O-gallate (Quality Phytochemicals, LLC, New Jersey, U.S.) were added to the αG SWEET solution, respectively, to achieve a series of concentrations ranging from about 50-80 ppm for the Emblica officinalis fruit extract; about 5-20 ppm for mucic acid 2-O-gallate; about 5-20 ppm for mucic acid 3-O-gallate; about 2-10 ppm for mucic acid lactone gallate; and about 10-20 ppm for galloyl glucose. Water was used in a control group. Samples were presented in a blind and pseudorandom order to a sensory panel. The lingering aftertaste-masking effect was evaluated by ranking the suppression of bitterness, metallic aftertaste and lingering sweetness on a scale of 0-5, where 0=no masking and 5=very strong masking.

[1] = 20 ppm in αG SWEET 0.14% solution

| Compound | Masking Effect [1] | Taste compared with the control | Masking Effect (10 ppm in αG SWEET 0.14% solution) |
| --- | --- | --- | --- |
| O=C(OC(C(O)C(=O)O)C(O)C(O)C(=O)O)c1cc(O)c(O)c(O)c1 (centres unmarked) [Mucic Acid 3-O-Gallate, mucic acid 3-O-gallate] | 1 | tasted considerably less bitter and the lingering metallic off-note was reduced | – |
| O=C(OC(C(=O)O)C(O)C(O)C(O)C(=O)O)c1cc(O)c(O)c(O)c1 (centres unmarked) [Mucic acid 2-O-gallate, mucic acid 2-O-gallate] | 1 | tasted considerably less bitter and the lingering metallic off-note was reduced | – |
| O=C(OC(C(=O)O)C1OC(=O)C(O)C1O)c1cc(O)c(O)c(O)c1 (centres unmarked) [Mucic acid lactone gallate, mucic acid lactone gallate] | – | tasted considerably less bitter and the lingering metallic off-note was reduced | 2 |
| galloyl glucose [reference compound] | 0 | very low effect | – |
